Columns and labels:
Test in all cases: fluorescence light-up (580/640 nm)
[1] = system: G4 parallel long-armed binary sensor + analyte (DNA, G4) TTACCCCACCAACTAGCTAATCCCACTTTTTTGGGTAGGG/GGGTTGGGTTTTTTCTGGGCATATCCAATCGCGCAA/TCGGGCCTTGCGCGATTGGATATGCCCAGGTGGGATTAGCTAGTTGGTGGGGTAATGG; conditions: 62.5 mM K+, 50 mM Na+, Mg2+ (concentration not stated); 25 mM Tris-HCl pH 7, incubated at 55 °C; analyte 1 µM; S/B 3.3
[2] = system: CleavedCV30S_2 (m + f) (DNA, aptamer) AACGACCACCGGTGCGCCGTTTTTTT/AAAAAAACAGGTAACTAGCGTCGTCGTT; conditions: 62.5 mM K+, 50 mM Na+, Mg2+ (concentration not stated); 25 mM Tris-HCl pH 7; best of eight cleavage sites
[3] = system: CV30S_8 short-armed binary sensor + analyte (DNA, aptamer) AACTAGCTAATCCCACTTTAACGACCACCGGTGCGCCGTATTTTTT/AAAAAACAGGTAACTAGCGTCGTCGTTTTTCTGGGCATATCCAA/TCGGGCCTTGCGCGATTGGATATGCCCAGGTGGGATTAGCTAGTTGGTGGGGTAATGG; conditions: 62.5 mM K+, 50 mM Na+, Mg2+ (concentration not stated); 25 mM Tris-HCl pH 7, incubated at 37 °C; analyte 1 µM; S/B 2.2
[4] = system: CleavedCV30S_3 (m + f) (DNA, aptamer) AACGACCACCGGTGCGCCGTACAGGTTTTTTT/AAAAAAAACTAGCGTCGTCGTT; conditions: 62.5 mM K+, 50 mM Na+, Mg2+ (concentration not stated); 25 mM Tris-HCl pH 7; third best cleavage site
[5] = system: G4 antiparallel (Aptamer_G4_antiparallel) (DNA, G4) AGGGTTAGGGTTAGGGTTAGGG; conditions: 37.5 mM K+, 50 mM Na+, Mg2+ (concentration not stated); 25 mM Tris-HCl pH 7, ~22 °C, 1.7 µM each; S/B 8.7
[6] = system: G4 parallel short-armed binary sensor + analyte (DNA, G4) AACTAGCTAATCCCACTTTTTTGGGTAGGG/GGGTTGGGTTTTTTCTGGGCATATCCAA/TCGGGCCTTGCGCGATTGGATATGCCCAGGTGGGATTAGCTAGTTGGTGGGGTAATGG; conditions: 62.5 mM K+, 50 mM Na+, Mg2+ (concentration not stated); 25 mM Tris-HCl pH 7, incubated at 37 °C; analyte 1 µM; S/B 3
[7] = system: CleavedCV30S_1 (m + f) (DNA, aptamer) AACGACCACCGGTGTTTTTT/AAAAAACGCCGTACAGGTAACTAGCGTCGTCGTT; conditions: 62.5 mM K+, 50 mM Na+, Mg2+ (concentration not stated); 25 mM Tris-HCl pH 7; fourth best cleavage site
[8] = system: G4 parallel (Aptamer_G4_parallel) (DNA, G4) GGGTAGGGCGGGTTGGG; conditions: 62.5 mM K+, 50 mM Na+, Mg2+ (concentration not stated); 25 mM Tris-HCl pH 7, ~22 °C, 1.7 µM each; S/B 1.9, poorest of three
[9] = system: CV30S (Aptamer_CV30S) (DNA, aptamer) AACGACCACCGGTGCGCCGTACAGGTAACTAGCGTCGTCGTT; conditions: 62.5 mM K+, 50 mM Na+, Mg2+ (concentration not stated); 25 mM Tris-HCl pH 7, ~22 °C, 1.7 µM each; S/B 7.8
[10] = system: CV30S_8 long-armed binary sensor + analyte (DNA, aptamer) TTACCCCACCAACTAGCTAATCCCACTTTAACGACCACCGGTGCGCCGTATTTTTT/AAAAAACAGGTAACTAGCGTCGTCGTTTTTCTGGGCATATCCAATCGCGCAA/TCGGGCCTTGCGCGATTGGATATGCCCAGGTGGGATTAGCTAGTTGGTGGGGTAATGG; conditions: 62.5 mM K+, 50 mM Na+, Mg2+ (concentration not stated); 25 mM Tris-HCl pH 7, incubated at 55 °C; analyte 1 µM; S/B 2.1
[11] = system: CleavedCV30S_8 (m + f) (DNA, aptamer) AACGACCACCGGTGCGCCGTATTTTTT/AAAAAACAGGTAACTAGCGTCGTCGTT; conditions: 62.5 mM K+, 50 mM Na+, Mg2+ (concentration not stated); 25 mM Tris-HCl pH 7; second best cleavage site
[12] = system: G4 antiparallel short-armed binary sensor + analyte (DNA, G4) AACTAGCTAATCCCACTTTTTTAGGGTTAGG/GTTAGGGTTAGGGTTTTTTCTGGGCATATCCAA/TCGGGCCTTGCGCGATTGGATATGCCCAGGTGGGATTAGCTAGTTGGTGGGGTAATGG; conditions: 37.5 mM K+, 50 mM Na+, Mg2+ (concentration not stated); 25 mM Tris-HCl pH 7, incubated at 37 °C; analyte 1 µM; S/B 3.2
[13] = system: G4 antiparallel long-armed binary sensor + analyte (DNA, G4) TTACCCCACCAACTAGCTAATCCCACTTTTTTAGGGTTAGG/GTTAGGGTTAGGGTTTTTTCTGGGCATATCCAATCGCGCAA/TCGGGCCTTGCGCGATTGGATATGCCCAGGTGGGATTAGCTAGTTGGTGGGGTAATGG; conditions: 37.5 mM K+, 50 mM Na+, Mg2+ (concentration not stated); 25 mM Tris-HCl pH 7, incubated at 55 °C; analyte 1 µM; S/B 3.3

Measured: binding

CN(C)c1ccc(C(=C2C=CC(=[N+](C)C)C=C2)c2ccc(N(C)C)cc2)cc1
yes: [1] | [2] | [3] | [4] | [5] | [6] | [7] | [8] | [9] | [10] | [11] | [12] | [13]
